Measurements published in BindingDB's records for doi:10.1021/jm049581j (Purdue University, 2005).

Molecular target: T1, Gag-Pol polyprotein [489-587] (Human immunodeficiency virus 1, UniProt P04585)
T1 construct: 489-587
Assay: Inhibitory concentration against human immunodeficiency virus-1 protease; (Dimerization inhibitor)

## CC[C@@H](C)[C@H](NC(=O)[C@H](CCC(N)=O)NC(=O)C1CCCN1C(=O)CCCCCCCCCCCCCCC(=O)N[C@@H](CO)C(=O)N[C@H](C(=O)N[C@@H](CC(C)C)C(=O)N[C@@H](CC(N)=O)C(=O)N[C@@H](Cc1ccccc1)C(=O)O)[C@H](C)O)C(=O)N[C@H](C(=O)N[C@@H](CC(C)C)C(=O)N[C@@H](Cc1c[nH]c2ccccc12)C(=O)O)[C@H](C)O (some centres not stated)
  IC50: 0.35 µM
  Ki: 0.22 µM
